This assay deals with T1, AMSH (Associated Molecule with the SH3 domain of STAM) (Homo sapiens, UniProt O95630).
T1 sequence (O95630 219-424): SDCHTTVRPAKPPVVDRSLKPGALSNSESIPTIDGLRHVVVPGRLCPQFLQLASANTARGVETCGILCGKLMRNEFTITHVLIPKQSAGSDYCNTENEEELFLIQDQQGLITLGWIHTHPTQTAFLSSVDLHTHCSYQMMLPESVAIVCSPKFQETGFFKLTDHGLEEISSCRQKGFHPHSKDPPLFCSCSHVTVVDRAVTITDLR
Kind of assay: FRET deubiquitinase assay with Lys63-linked diubiquitin probe. It is filed as biochemical.

As to `CCN1C(=O)C=CC1=O` [NEM, N-ethylmaleimide], inhibition was half-maximal at 16.2 ± 3.1 µM (IC50).

Values taken from paper PMC3784021 (Analytical biochemistry, 2013).
